Data: patent US20150274719A1, “AMINO-SUBSTITUTED IMIDAZO[1,2-A]PYRIDINECARBOXAMIDES AND THEIR USE” (BAYER PHARMA AKTIENGESELLSCHAFT, priority 2012, published 2015)
Structures can show the parent of a compound that is named as a salt.

target: T1, recombinant guanylate cyclase reporter cell line (Rattus norvegicus, UniProt P19686+P20595); assay: Action on recombinant guanylate cyclase reporter cell line; assay type: cell-based; settings: in some cases mean values from individual determinations
T1 construct: expressed in transfected cells; host or cells: recombinant reporter cell line
T1 sequence (P19686 1-690): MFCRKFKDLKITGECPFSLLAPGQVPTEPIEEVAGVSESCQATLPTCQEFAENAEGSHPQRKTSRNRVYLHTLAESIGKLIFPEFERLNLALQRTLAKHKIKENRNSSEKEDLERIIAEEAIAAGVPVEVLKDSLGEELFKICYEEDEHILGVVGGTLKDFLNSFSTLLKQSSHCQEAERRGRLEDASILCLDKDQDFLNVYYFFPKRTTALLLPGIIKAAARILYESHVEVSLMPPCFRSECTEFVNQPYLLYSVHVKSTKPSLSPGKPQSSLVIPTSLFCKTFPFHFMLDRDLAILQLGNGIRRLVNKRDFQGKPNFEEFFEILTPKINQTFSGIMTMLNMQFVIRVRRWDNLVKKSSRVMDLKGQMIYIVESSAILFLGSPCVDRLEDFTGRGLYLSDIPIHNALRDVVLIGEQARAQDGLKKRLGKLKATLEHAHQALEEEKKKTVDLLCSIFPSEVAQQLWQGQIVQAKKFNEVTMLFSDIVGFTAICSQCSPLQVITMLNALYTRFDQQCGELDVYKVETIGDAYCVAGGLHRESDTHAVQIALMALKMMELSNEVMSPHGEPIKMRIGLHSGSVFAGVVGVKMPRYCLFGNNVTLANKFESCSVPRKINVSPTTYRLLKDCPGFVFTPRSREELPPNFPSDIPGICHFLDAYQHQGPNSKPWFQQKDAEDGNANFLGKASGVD
T1 sequence (P20595 1-619): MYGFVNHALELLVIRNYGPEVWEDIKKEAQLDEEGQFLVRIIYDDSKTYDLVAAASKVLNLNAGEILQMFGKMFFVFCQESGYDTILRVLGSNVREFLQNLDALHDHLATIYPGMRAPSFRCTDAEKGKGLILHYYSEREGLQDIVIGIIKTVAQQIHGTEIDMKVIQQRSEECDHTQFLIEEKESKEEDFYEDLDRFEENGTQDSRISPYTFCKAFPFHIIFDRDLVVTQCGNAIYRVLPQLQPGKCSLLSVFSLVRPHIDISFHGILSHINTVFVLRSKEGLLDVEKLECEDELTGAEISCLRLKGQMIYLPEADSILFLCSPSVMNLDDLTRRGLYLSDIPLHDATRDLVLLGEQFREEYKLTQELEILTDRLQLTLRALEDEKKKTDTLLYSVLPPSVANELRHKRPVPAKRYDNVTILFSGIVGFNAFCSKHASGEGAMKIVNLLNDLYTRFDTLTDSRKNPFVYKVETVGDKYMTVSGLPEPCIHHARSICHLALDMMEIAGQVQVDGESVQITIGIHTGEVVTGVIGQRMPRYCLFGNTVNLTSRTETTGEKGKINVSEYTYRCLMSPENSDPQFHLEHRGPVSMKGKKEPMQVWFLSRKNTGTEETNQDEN
How it was run: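 Read-out: MEC (minimal effective concentration) in cells. Reporter line carries recombinant sGC. Some values are averages of single runs.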

Point of comparison: `Cc1nc2c(OCc3c(F)cccc3F)cccn2c1C(=O)NC1CC2CCCC(C1)N2C` (stereo not drawn) [Example 90, 8-[(2,6-difluorobenzyl)oxy]-2-methyl-N-(9-methyl-9-azabicyclo[3.3.1]non-3-yl)imidazo[1,2-a]pyridine-3-carboxamide], “MEC (minimal effective concentration)” value 0.10 µM. Against it:
- Cc1cc(OCc2c(F)cccc2F)c2nc(C)c(C(=O)NC3CC(N)C3)n2c1 (mixture of isomers) [Example 334, N-(3-aminocyclobutyl)-8-[(2,6-difluorobenzyl)oxy]-2,6-dimethylimidazo[1,2-a]pyridine-3-carboxamide (cis/trans mixture)] — 10-fold higher, 1.00 µM
- Cc1cc(OCc2c(F)cccc2F)c2nc(C)c(C(=O)NCC(N)c3csc(C)n3)n2c1 (racemic) [Example 415, rac-N-[2-amino-2-(2-methyl-1,3-thiazol-4-yl)ethyl]-8-[(2,6-difluorobenzyl)oxy]-2,6-dimethylimidazo[1,2-a]pyridine-3-carboxamide triformate] — 55-fold higher, 5.5 µM
- Cc1cc(OCc2c(F)cccc2F)c2nc(C)c(C(=O)N[C@@H]3CCCC[C@H]3N)n2c1 [Example 251, ent-N-[(1R,2R)-2-Aminocyclohexyl]-8-[(2,6-difluorobenzyl)oxy]-2,6-dimethylimidazo[1,2-a]-pyridine-3-carboxamide] — 30-fold higher, 3.00 µM
- Cc1cc(OCc2c(F)cccc2F)c2nc(C)c(C(=O)NC3(C)CCC3(C)N)n2c1 (racemic) [Example 335, rac-N-[2-amino-1,2-dimethylcyclobutyl]-8-[(2,6-difluorobenzyl)oxy]-2,6-dimethylimidazo[1,2-a]pyridine-3-carboxamide] — 3-fold higher, 0.30 µM
- Cc1cc(OCc2c(F)cccc2F)c2nc(C)c(C(=O)NC3CCC(N)C3)n2c1 (single isomer, unassigned) [Example 309, ent-N-(3-aminocyclopentyl)-8-[(2,6-difluorobenzyl)oxy]-2,6-dimethylimidazo[1,2-a]pyridine-3-carboxamide] — 3-fold higher, 0.30 µM
- Cc1nc2c(OCc3c(F)cccc3F)cccn2c1C(=O)NCC(C)(C)N(C)C [Example 145, 8-[(2,6-difluorobenzyl)oxy]-N-[2-(dimethylamino)-2-methylpropyl]-2-methylimidazo[1,2-a]pyridine-3-carboxamide] — 30-fold higher, 3.00 µM
- COCC(C)(N)CNC(=O)c1c(C)nc2c(OCc3c(F)cccc3F)cc(Cl)cn12 (racemic) [Example 159, rac-N-(2-amino-3-methoxy-2-methylpropyl)-6-chloro-8-[(2,6-difluorobenzyl)oxy]-2-methylimidazo[1,2-a]pyridine-3-carboxamide] — 3-fold higher, 0.30 µM
- Cc1nc2c(OCc3c(F)cccc3F)cccn2c1C(=O)NCC(C)(N)CCOCc1ccccc1 (racemic) [Example 264, rac-N-[2-amino-4-(benzyloxy)-2-methylbutyl]-8-[(2,6-difluorobenzyl)oxy]-2-methylimidazo[1,2-a]pyridine-3-carboxamide] — 3.3-fold lower, 0.03 µM
- Cc1nc2c(OCc3c(F)cccc3F)cccn2c1C(=O)NCCN1CCC(F)(F)C1 [Example 143, 8-[(2,6-difluorobenzyl)oxy]-N-[2-(3,3-difluoropyrrolidin-1-yl)ethyl]-2-methylimidazo[1,2-a]pyridine-3-carboxamide] — 3-fold higher, 0.30 µM
- Cc1nc2c(OCc3c(F)cccc3F)cccn2c1C(=O)NCC(C)N1CCOCC1 (racemic) [Example 132, rac-8-[(2,6-difluorobenzyl)oxy]-2-methyl-N-[2-(morpholin-4-yl)propyl]imidazo[1,2-a]pyridine-3-carboxamide] — 10-fold higher, 1.00 µM
- Cc1nc2c(OCc3c(F)cccc3F)cc(Cl)cn2c1C(=O)NCC(C)N (single isomer, unassigned) [Example 29, ent-N-(2-Aminopropyl)-6-chloro-8-[(2,6-difluorobenzyl)oxy]-2-methylimidazo[1,2-a]pyridine-3-carboxamide] — 2-fold higher, 0.20 µM
- Cc1nc2c(OCc3c(F)cccc3F)cccn2c1C(=O)NC1CCNc2ccccc21 (racemic) [Example 50, rac-8-[(2,6-Difluorobenzyl)oxy]-2-methyl-N-(1,2,3,4-tetrahydroquinolin-4-yl)imidazo[1,2-a]-pyridine-3-carboxamide] — 3.3-fold lower, 0.03 µM
- C=Cc1cccc(C(CN)NC(=O)c2c(C)nc3c(OCc4c(F)cccc4F)cc(C)cn23)c1 (racemic) [Example 385, rac-N-[2-amino-1-(3-ethenylphenyl)ethyl]-8-[(2,6-difluorobenzyl)oxy]-2,6-dimethylimidazo[1,2-a]pyridine-3-carboxamide] — 10-fold higher, 1.00 µM
- Cc1nc2c(OCc3c(F)cccc3F)cc(Cl)cn2c1C(=O)NCC1(N)CC1 [Example 39, N-[(1-aminocyclopropyl)methyl]-6-chloro-8-[(2,6-difluorobenzyl)oxy]-2-methylimidazo[1,2-a]pyridine-3-carboxamide] — the same, 0.10 µM
- Cc1nc2c(OCc3c(F)cccc3F)cccn2c1C(=O)NC1CCNc2ccc(C(F)(F)F)cc21 (single isomer, unassigned; ent-8) [Example 111, ent-8-[(2,6-difluorobenzyl)oxy]-2-methyl-N-[6-(trifluoromethyl)-1,2,3,4-tetrahydroquinolin-4-yl]imidazo[1,2-a]pyridine-3-carboxamide] — 10-fold higher, 1.00 µM
- Cc1nc2c(OCc3c(F)cccc3F)cccn2c1C(=O)NC(CN)c1ccc(Cl)cc1 (racemic) [Example 14, rac-N-[2-Amino-1-(4-chlorophenyl)ethyl]-8-[(2,6-difluorobenzyl)oxy]-2-methylimidazo[1,2-a]-pyridine-3-carboxamide dihydrochloride] — 10-fold higher, 1.00 µM
- Cc1cc(OCc2c(F)cccc2F)c2nc(C)c(C(=O)NC(C#N)CN)n2c1 (racemic) [Example 416, rac-N-(2-amino-1-cyanoethyl)-8-[(2,6-difluorobenzyl)oxy]-2,6-dimethylimidazo[1,2-a]pyridine-3-carboxamide] — 10-fold higher, 1.00 µM
- Cc1nc2c(OCc3c(F)cccc3F)cccn2c1C(=O)NCC(C)(C)CN [Example 103, N-(3-amino-2,2-dimethylpropyl)-8-[(2,6-difluorobenzyl)oxy]-2-methylimidazo[1,2-a]-pyridine-3-carboxamide] — 30-fold higher, 3.00 µM
- Cc1nc2c(OCc3c(F)cccc3F)cccn2c1C(=O)NC(C)(C)C(C)(C)N [Example 141, N-(3-Amino-2,3-dimethylbutan-2-yl)-8-[(2,6-difluorobenzyl)oxy]-2-methylimidazo[1,2-a]pyridine-3-carboxamide] — 30-fold higher, 3.00 µM
- Cc1cc(OCc2c(F)cccc2F)c2nc(C)c(C(=O)NC3CCC4NCCC43)n2c1 (racemic) [Example 342, rac-8-[(2,6-Difluorobenzyl)oxy]-2,6-dimethyl-N-(octahydrocyclopenta[b]pyrrol-4-yl)imidazo[1,2-a]pyridine-3-carboxamide] — 10-fold higher, 1.00 µM
- Cc1nc2c(OCc3c(F)cccc3F)cccn2c1C(=O)NCC(N)C(F)(F)C(F)F (racemic) [Example 230, rac-N-(2-Amino-3,3,4,4-tetrafluorobutyl)-8-[(2,6-difluorobenzyl)oxy]-2-methylimidazo[1,2-a]-pyridine-3-carboxamide] — 10-fold higher, 1.00 µM
- COCC(C)(N)CNC(=O)c1c(C)nc2c(OCc3c(F)cccc3F)cccn12 (single isomer, unassigned) [Example 215, ent-N-(2-Amino-3-methoxy-2-methylpropyl)-8-[(2,6-difluorobenzyl)oxy]-2-methylimidazo[1,2-a]-pyridine-3-carboxamide] — 10-fold higher, 1.00 µM
- Cc1cc(OCc2c(F)cccc2F)c2nc(C)c(C(=O)NC[C@@H]3CCCCN3)n2c1 [Example 172, 8-[(2,6-Difluorobenzyl)oxy]-2,6-dimethyl-N-[(2S)-piperidin-2-ylmethyl]imidazo[1,2-a]pyridine-3-carboxamide] — 3-fold higher, 0.30 µM
